Literature values as cited in patent US20200215022A1, “NOVEL CANNABINOID COMPOSITIONS AND METHODS OF TREATING PEDIATRIC EPILEPSY” (TILRAY, INC., priority 2016, published 2020).

Assays:
sodium channel = details: human and animal models
CB2 = CB2 (Homo sapiens, UniProt P34972); details: Pacher et al., 2006
[1] = in vivo
CYP2C19 = CYP2C19 (Homo sapiens, UniProt P33261)
CYP2C9 = CYP2C9 (Homo sapiens, UniProt P11712)
CYP2C8 = biological target: T1, CYP2C8 (Homo sapiens, UniProt P10632)
T1 sequence (P10632 1-490): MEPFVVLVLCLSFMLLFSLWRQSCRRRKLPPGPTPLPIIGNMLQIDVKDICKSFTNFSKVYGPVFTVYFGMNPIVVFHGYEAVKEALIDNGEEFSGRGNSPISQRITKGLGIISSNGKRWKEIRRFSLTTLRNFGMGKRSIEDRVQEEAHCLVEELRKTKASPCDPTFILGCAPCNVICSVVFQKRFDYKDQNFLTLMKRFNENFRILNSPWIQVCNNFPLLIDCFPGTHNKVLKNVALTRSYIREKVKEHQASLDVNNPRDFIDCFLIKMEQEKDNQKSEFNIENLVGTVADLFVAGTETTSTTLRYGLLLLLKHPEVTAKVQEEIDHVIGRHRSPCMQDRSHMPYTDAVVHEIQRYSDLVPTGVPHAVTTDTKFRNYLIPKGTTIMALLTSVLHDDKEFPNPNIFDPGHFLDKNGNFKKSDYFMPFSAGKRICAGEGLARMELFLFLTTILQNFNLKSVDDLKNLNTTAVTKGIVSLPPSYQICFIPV

CYP3A4 = CYP3A4 (Homo sapiens, UniProt P08684)
CYP2B6 = biological target: T2, CYP2B6 (Homo sapiens, UniProt P20813)
T2 sequence (P20813 1-491): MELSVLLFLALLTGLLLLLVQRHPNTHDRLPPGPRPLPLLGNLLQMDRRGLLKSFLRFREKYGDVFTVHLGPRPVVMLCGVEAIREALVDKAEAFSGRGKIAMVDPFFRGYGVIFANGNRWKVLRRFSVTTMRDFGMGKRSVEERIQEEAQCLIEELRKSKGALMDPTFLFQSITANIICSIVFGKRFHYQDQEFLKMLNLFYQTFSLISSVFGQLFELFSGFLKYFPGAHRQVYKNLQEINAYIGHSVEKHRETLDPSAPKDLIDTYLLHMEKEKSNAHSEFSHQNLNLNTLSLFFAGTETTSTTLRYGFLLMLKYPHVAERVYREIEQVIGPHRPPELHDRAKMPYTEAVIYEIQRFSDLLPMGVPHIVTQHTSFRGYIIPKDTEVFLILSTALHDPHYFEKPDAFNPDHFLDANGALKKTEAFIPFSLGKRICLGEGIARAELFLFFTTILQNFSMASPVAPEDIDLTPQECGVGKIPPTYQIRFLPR

Chain of CYP2C19 (P33261 whole entry): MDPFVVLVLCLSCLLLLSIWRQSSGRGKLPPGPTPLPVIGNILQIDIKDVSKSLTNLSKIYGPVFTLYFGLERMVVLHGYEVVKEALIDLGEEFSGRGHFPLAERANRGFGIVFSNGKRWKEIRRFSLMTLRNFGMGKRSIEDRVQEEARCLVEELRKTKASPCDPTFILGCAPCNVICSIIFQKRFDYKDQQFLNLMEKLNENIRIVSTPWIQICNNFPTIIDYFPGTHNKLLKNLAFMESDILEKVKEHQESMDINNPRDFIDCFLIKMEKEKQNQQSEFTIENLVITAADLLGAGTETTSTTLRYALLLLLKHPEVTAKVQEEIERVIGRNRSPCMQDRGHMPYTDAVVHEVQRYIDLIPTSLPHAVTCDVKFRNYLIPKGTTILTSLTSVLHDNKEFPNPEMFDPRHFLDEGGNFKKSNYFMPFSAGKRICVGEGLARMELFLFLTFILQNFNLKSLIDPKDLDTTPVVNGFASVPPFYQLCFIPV
Chain of CYP2C9 (P11712 whole entry): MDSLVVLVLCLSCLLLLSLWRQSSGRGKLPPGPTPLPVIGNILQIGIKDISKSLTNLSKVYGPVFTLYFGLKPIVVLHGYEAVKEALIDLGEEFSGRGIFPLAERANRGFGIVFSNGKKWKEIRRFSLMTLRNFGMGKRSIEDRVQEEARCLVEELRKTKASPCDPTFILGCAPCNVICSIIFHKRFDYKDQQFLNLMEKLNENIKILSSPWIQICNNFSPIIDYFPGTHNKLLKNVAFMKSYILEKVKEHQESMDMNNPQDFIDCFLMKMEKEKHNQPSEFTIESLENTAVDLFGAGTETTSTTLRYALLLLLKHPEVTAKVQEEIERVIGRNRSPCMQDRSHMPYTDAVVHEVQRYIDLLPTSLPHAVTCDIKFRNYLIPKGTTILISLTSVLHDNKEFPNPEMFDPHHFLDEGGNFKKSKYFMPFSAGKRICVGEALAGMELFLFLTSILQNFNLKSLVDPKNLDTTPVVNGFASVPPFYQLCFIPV
Chain of CB2 (P34972 whole entry, species assumed): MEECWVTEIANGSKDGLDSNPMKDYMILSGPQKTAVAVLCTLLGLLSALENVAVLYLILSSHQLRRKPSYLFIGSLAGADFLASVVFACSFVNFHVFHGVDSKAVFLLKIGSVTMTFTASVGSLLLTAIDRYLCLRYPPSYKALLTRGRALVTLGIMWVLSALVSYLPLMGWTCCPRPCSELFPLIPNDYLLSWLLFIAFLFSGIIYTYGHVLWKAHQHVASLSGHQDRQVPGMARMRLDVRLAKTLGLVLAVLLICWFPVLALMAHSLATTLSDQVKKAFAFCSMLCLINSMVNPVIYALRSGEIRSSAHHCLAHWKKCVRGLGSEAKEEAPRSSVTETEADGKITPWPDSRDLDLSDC
Chain of CYP3A4 (P08684 whole entry): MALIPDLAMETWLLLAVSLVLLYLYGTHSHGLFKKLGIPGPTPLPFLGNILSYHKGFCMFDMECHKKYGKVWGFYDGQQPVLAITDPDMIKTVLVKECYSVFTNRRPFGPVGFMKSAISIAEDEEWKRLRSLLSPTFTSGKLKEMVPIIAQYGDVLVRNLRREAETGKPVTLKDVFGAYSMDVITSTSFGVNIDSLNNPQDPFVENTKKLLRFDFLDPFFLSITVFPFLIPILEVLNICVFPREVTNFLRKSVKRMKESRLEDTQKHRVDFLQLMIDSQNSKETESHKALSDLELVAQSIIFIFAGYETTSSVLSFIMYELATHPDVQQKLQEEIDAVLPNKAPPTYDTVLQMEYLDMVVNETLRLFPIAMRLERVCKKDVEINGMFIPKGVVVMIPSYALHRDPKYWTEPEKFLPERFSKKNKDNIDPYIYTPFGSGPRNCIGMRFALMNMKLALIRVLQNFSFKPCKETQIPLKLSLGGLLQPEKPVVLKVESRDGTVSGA

SMILES | Sodium channel block (sodium channel) | Affinity for cannabinoid receptor CB2 (CB2) | Route of excretion [1] | Time CBD levels are detected post administration [1] | Lipid solubility | Inhibition of CYP2C19 (CYP2C19) | Inhibition of CYP2C9 (CYP2C9) | Inhibition of CYP2C8 (CYP2C8) | Inhibition of CYP3A4 (CYP3A4) | Inhibition of CYP2B6 (CYP2B6)
C=C(C)[C@@H]1CCC(C)=C[C@H]1c1c(O)cc(CCCCC)cc1O [CBD, cannabidiol] | potent sodium channel blockers | does not appear to have a great affinity | excreted in the urine and feces | up to 8 hours | highly lipid soluble | potent inhibitor | potent inhibitor | potent inhibitor | potent inhibitor | potent inhibitor
CCCCCc1cc(O)c(C/C=C(\C)CCC=C(C)C)c(O)c1 [CBG, cannabigerol] | potent sodium channel blockers |  |  |  |  |  |  |  |  | 
